This is an account of results in ChEMBL document CHEMBL1201862, “PubChem BioAssay data set” (2004).

Some test systems named below: SK-MEL-5; HCT-15; MCF7; UO-31; NCI-H226; NCI-H460; NCI-H23; HL-60; CCRF-CEM; IGROV-1; SF-539; SNB-75; SK-MEL-28; UACC-257; CAKI-1; SR; OVCAR-8; RPMI-8226; SW-620; COLO 205.
Holding throughout (test): DTP human tumour cell line panel, 48 h

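Results reflect a 48-hour exposure of cells in 96-well plates to compound at five concentrations. Abbreviation: GI50, concentration required for 50% inhibition of growth.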 Calls of active or inactive are those of the source. No stated cut-off is given here; in the data, active = GI50 up to about 1.1 µM and inactive = higher.

In general, GI50 refers to the concentration that inhibits growth by half. For `Cc1nc(N)nc(S)c1CCCNc1ccccc1`, the GI50 is 27.5 µM (inactive) in the experiment on SK-MEL-5; greater than 100 µM with HCT-15; 38 µM (inactive) in the experiment with MCF7; 59.3 µM (inactive) with UO-31; > 100 µM (inactive) in the experiment with NCI-H226; 35 µM (inactive) with NCI-H460. For the same compound, the GI50 with NCI-H23 is 88.5 µM (inactive); in the experiment on HL-60 it was 50 µM (inactive); in the experiment with CCRF-CEM it was 28 µM (inactive); with IGROV-1, > 100 µM (inactive); in the experiment with SF-539 it was 95.7 µM (inactive); in the experiment with SNB-75, > 100 µM (inactive). Also, the GI50 in the experiment with SK-MEL-28 is > 100 µM (inactive); with UACC-257 it was 26.9 µM (inactive); with CAKI-1 it was > 100 µM (inactive); with SR, 3.6 µM (inactive); in the experiment on OVCAR-8 it was 20.5 µM (inactive); with RPMI-8226 it was 27.2 µM (inactive). Besides, the results for the GI50 in the experiment on SW-620 and in the experiment with COLO 205 were > 100 µM (inactive) and 23.5 µM (inactive), respectively.
`CCCCn1c2c(n(CCCC)c1=S)-c1c(n(CCCC)c(=S)n1CCCC)SSc1c(n(CCCC)c(=S)n1CCCC)-c1c(n(CCCC)c(=S)n1CCCC)SSc1c(n(CCCC)c(=S)n1CCCC)-c1c(n(CCCC)c(=S)n1CCCC)SS2`: the GI50 in the experiment on SK-MEL-5 is 12 µM (inactive); in the experiment with HCT-15 it was 7.64 µM; in the experiment on MCF7 it was 12.8 µM (inactive); in the experiment with UO-31, 6.47 µM (inactive); in the experiment on NCI-H226, 10 µM (inactive); in the experiment with NCI-H460 it was > 31 µM (inactive). The GI50 is 16.3 µM (inactive) in the experiment on NCI-H23; 1.75 µM (inactive) with HL-60; 1.19 µM (inactive) in the experiment with CCRF-CEM; 2.43 µM (inactive) in the experiment with IGROV-1; 4.31 µM (inactive) in the experiment on SF-539; 10.1 µM (inactive) in the experiment on SNB-75. Also, the GI50 in the experiment on SK-MEL-28 was 13.6 µM (inactive); in the experiment with UACC-257 it was 2.98 µM (inactive); in the experiment on CAKI-1, 10.2 µM (inactive); in the experiment with SR, 1.88 µM (inactive); in the experiment on OVCAR-8, 1.77 µM (inactive); in the experiment on RPMI-8226, 1.99 µM (inactive). Also, the GI50 in the experiment on SW-620 was 1.69 µM (inactive); in the experiment with COLO 205, 2.64 µM (inactive).
In the case of `Cc1ccc2nc(/C=N/c3ccc(Cl)cc3)cc(C)c2c1`, the GI50 in the experiment on SK-MEL-5 was 2.29 µM (inactive); with HCT-15 it was 0.027 µM; in the experiment on MCF7, 4.7 µM (inactive); with UO-31 it was 0.381 µM (active); in the experiment on NCI-H226, 18.4 µM (inactive); in the experiment on NCI-H460, 0.729 µM (active). Moreover, the GI50 with NCI-H23 is 9.91 µM (inactive); in the experiment on HL-60 it was 1.14 µM (inactive); with CCRF-CEM it was 1.06 µM (active); in the experiment with IGROV-1 it was 0.989 µM (active); in the experiment on SF-539 it was 2.12 µM (inactive); in the experiment with SNB-75, 17 µM (inactive). Also, the GI50 is 13.4 µM (inactive) with SK-MEL-28; 4.38 µM (inactive) in the experiment on UACC-257; 1.38 µM (inactive) in the experiment on CAKI-1; 1.88 µM (inactive) in the experiment on SR; 10.3 µM (inactive) in the experiment with OVCAR-8; 1.24 µM (inactive) with RPMI-8226. For the same compound, the GI50 was 2.07 µM (inactive) with SW-620 and 1.16 µM (inactive) in the experiment with COLO 205.
As to `N#CC(Cl)CS(=O)(=O)c1ccccc1` (stereo not given), the GI50 is 15.8 µM (inactive) in the experiment with SK-MEL-5; 2.14 µM in the experiment with HCT-15; 10.2 µM (inactive) with MCF7; 19.1 µM (inactive) in the experiment with UO-31; 22.1 µM (inactive) in the experiment on NCI-H226; 18.6 µM (inactive) with NCI-H460. Further, the GI50 is 16.3 µM (inactive) in the experiment with NCI-H23; 1.53 µM (inactive) in the experiment with HL-60; 0.628 µM (active) with CCRF-CEM; 16.9 µM (inactive) in the experiment with IGROV-1; 14.9 µM (inactive) in the experiment with SF-539; 15.2 µM (inactive) with SNB-75. Also, the GI50 is 13.3 µM (inactive) in the experiment with SK-MEL-28; 7.14 µM (inactive) with UACC-257; 3.06 µM (inactive) in the experiment with CAKI-1; 1.8 µM (inactive) in the experiment on SR; 6.7 µM (inactive) in the experiment on OVCAR-8; 3.32 µM (inactive) with RPMI-8226. In addition, the GI50 was 1.68 µM (inactive) with SW-620 and 1.75 µM (inactive) in the experiment with COLO 205.
`OC(CCN1CCN(CCOC(c2ccc(F)cc2)c2ccc(F)cc2)CC1)c1ccccc1` (stereo not given): the GI50 is 7.6 µM (inactive) in the experiment with SK-MEL-5; 13.6 µM in the experiment with HCT-15; 16.6 µM (inactive) in the experiment with MCF7; 3.37 µM (inactive) in the experiment with UO-31; 15 µM (inactive) in the experiment on NCI-H226; 16.7 µM (inactive) with NCI-H460. The GI50 is 16.6 µM (inactive) in the experiment with NCI-H23; 15.9 µM (inactive) in the experiment on HL-60; 19 µM (inactive) in the experiment with CCRF-CEM; 13.6 µM (inactive) in the experiment with IGROV-1; 11.1 µM (inactive) with SF-539; 13.5 µM (inactive) in the experiment on SNB-75. Further, the GI50 in the experiment on SK-MEL-28 was 17.5 µM (inactive); in the experiment with UACC-257, 16.2 µM (inactive); in the experiment on CAKI-1, 16.8 µM (inactive); in the experiment on SR, 5.48 µM (inactive); in the experiment with OVCAR-8 it was 12.9 µM (inactive); with RPMI-8226, 15.7 µM (inactive). The GI50 with SW-620 is 22.8 µM (inactive); in the experiment with COLO 205, 4.09 µM (inactive).
Consider `COC(=O)c1c(O)ccc2c1c1c(n2Cc2ccc(OC)cc2)C(=O)c2ccccc2C1`, for which the GI50 in the experiment with SK-MEL-5 is 44.6 µM (inactive); in the experiment on HCT-15, 52.1 µM; with MCF7, 22.4 µM (inactive); with UO-31, 41.6 µM (inactive); with NCI-H226, > 100 µM (inactive); in the experiment on NCI-H460 it was 29.3 µM (inactive). Further, the GI50 with NCI-H23 is 63.4 µM (inactive); in the experiment on HL-60 it was > 100 µM (inactive); in the experiment on CCRF-CEM it was 21.9 µM (inactive); with IGROV-1, 21.6 µM (inactive); with SF-539, 42.2 µM (inactive); with SNB-75, 51.2 µM (inactive). Also, the GI50 in the experiment on SK-MEL-28 is > 100 µM (inactive); in the experiment on UACC-257 it was 44.4 µM (inactive); with CAKI-1 it was 20.6 µM (inactive); in the experiment on SR it was 66.2 µM (inactive); in the experiment on OVCAR-8 it was > 100 µM (inactive); in the experiment with RPMI-8226, 8.22 µM (inactive). The GI50 was 82.8 µM (inactive) in the experiment with SW-620 and 16.9 µM (inactive) in the experiment with COLO 205.
As to `N#Cc1ccc2oc3ccc(C#N)cc3c(=O)c2c1`, the GI50 in the experiment on SK-MEL-5 is 5.6 µM (inactive); in the experiment on HCT-15 it was greater than 100 µM; in the experiment with MCF7, 24.5 µM (inactive); with UO-31, > 100 µM (inactive); in the experiment on NCI-H226, 35.9 µM (inactive); in the experiment on NCI-H460, 18.6 µM (inactive). The GI50 in the experiment on NCI-H23 is 21.3 µM (inactive); in the experiment with HL-60, 17.9 µM (inactive); with CCRF-CEM it was 31.8 µM (inactive); in the experiment on IGROV-1, 32 µM (inactive); in the experiment on SF-539 it was 21.3 µM (inactive); in the experiment with SNB-75, 31.7 µM (inactive). In addition, the GI50 with SK-MEL-28 was 18.5 µM (inactive); in the experiment on UACC-257 it was > 100 µM (inactive); with CAKI-1 it was > 100 µM (inactive); in the experiment with SR, 41.6 µM (inactive); with OVCAR-8, > 100 µM (inactive); with RPMI-8226, 23.2 µM (inactive). For the same compound, the GI50 with SW-620 is 51.5 µM (inactive); in the experiment with COLO 205, 26.7 µM (inactive).
As for `COc1cc(CSc2ccc(O)cc2)cc(OC)c1OC`, the GI50 in the experiment with SK-MEL-5 is 18 µM (inactive); in the experiment on HCT-15, 25.5 µM; in the experiment with MCF7, 4.31 µM (inactive); in the experiment on UO-31 it was 14.5 µM (inactive); in the experiment with NCI-H226 it was 29 µM (inactive); in the experiment on NCI-H460, 37.6 µM (inactive). Also, the GI50 is 28.6 µM (inactive) in the experiment with NCI-H23; 20.4 µM (inactive) with HL-60; > 10 µM (inactive) in the experiment on CCRF-CEM; 48.5 µM (inactive) in the experiment with IGROV-1; 53.3 µM (inactive) in the experiment on SF-539; 23.1 µM (inactive) in the experiment with SNB-75. Moreover, the GI50 was 76.7 µM (inactive) in the experiment on SK-MEL-28; 39 µM (inactive) in the experiment with UACC-257; 34.6 µM (inactive) in the experiment with CAKI-1; 24.1 µM (inactive) in the experiment on SR; 33.8 µM (inactive) in the experiment on OVCAR-8; 21.3 µM (inactive) with RPMI-8226. The GI50 is > 100 µM (inactive) in the experiment with SW-620 and 67.8 µM (inactive) in the experiment on COLO 205.
`CCOC(=O)/C=C(/C(=O)OCC)n1cc(C)c(=O)[nH]c1=O`: the GI50 was 8.81 µM (inactive) in the experiment with SK-MEL-5; 2.04 µM with HCT-15; 3.89 µM (inactive) with MCF7; 11.2 µM (inactive) with UO-31; 5.46 µM (inactive) with NCI-H226; 14.6 µM (inactive) in the experiment with NCI-H460. In addition, the GI50 in the experiment with NCI-H23 was 5.56 µM (inactive); with HL-60, 1.67 µM (inactive); in the experiment on CCRF-CEM it was 1.37 µM (inactive); in the experiment with IGROV-1, 5.36 µM (inactive); in the experiment with SF-539 it was 13.2 µM (inactive); in the experiment on SNB-75, 10.3 µM (inactive). Moreover, the GI50 with SK-MEL-28 is 4.78 µM (inactive); in the experiment on UACC-257, 12.9 µM (inactive); in the experiment on CAKI-1 it was 1.15 µM (inactive); with SR it was 1.92 µM (inactive); with OVCAR-8, 4.62 µM (inactive); in the experiment with RPMI-8226 it was 2.47 µM (inactive). The GI50 was 2.01 µM (inactive) in the experiment on SW-620 and 1.81 µM (inactive) with COLO 205.
Regarding `Cc1cc(C)c2c(O)cc(-c3ccc4ccccc4c3)nc2n1`, the GI50 is 2.7 µM (inactive) in the experiment with SK-MEL-5; 6.1 µM with HCT-15; 15.5 µM (inactive) in the experiment on MCF7; 22.9 µM (inactive) in the experiment with UO-31; 19.5 µM (inactive) with NCI-H226; 9.84 µM (inactive) in the experiment with NCI-H460. Also, the GI50 with NCI-H23 was 30.8 µM (inactive); with HL-60 it was 3.04 µM (inactive); in the experiment with CCRF-CEM, 11.6 µM (inactive); with IGROV-1, 12.6 µM (inactive); in the experiment with SF-539, 30.8 µM (inactive); with SNB-75 it was 15.8 µM (inactive). For the same compound, the GI50 is > 47.4 µM (inactive) in the experiment with SK-MEL-28; 21.2 µM (inactive) with UACC-257; 54.6 µM (inactive) in the experiment on CAKI-1; 5.98 µM (inactive) in the experiment on SR; 39 µM (inactive) with OVCAR-8; 6.31 µM (inactive) in the experiment with RPMI-8226. Further, the GI50 with SW-620 was 15.2 µM (inactive); with COLO 205, 18.3 µM (inactive).
